SMILES strings stand for the structures.

Usually EC50 stands for the concentration at which the effect is half-maximal. As a reminder, the Kb is the affinity of an antagonist, worked out from how it opposes an agonist.

The target in test [1] is T1, Glutamate receptor 1 (Homo sapiens, UniProt P42261). Briefly: Agonist activity at recombinant GluA1 receptor expressed in Xenopus oocytes. In kind it is functional, cell-based, Oocyte.
The target in test [2] is T2, Glutamate receptor 3 (Homo sapiens, UniProt P42263). Kind of test: Agonist activity at recombinant GluA3 receptor expressed in Xenopus oocytes. The class given is functional, cell-based, Oocyte.
T2 sequence (P42263 whole entry, canonical isoform): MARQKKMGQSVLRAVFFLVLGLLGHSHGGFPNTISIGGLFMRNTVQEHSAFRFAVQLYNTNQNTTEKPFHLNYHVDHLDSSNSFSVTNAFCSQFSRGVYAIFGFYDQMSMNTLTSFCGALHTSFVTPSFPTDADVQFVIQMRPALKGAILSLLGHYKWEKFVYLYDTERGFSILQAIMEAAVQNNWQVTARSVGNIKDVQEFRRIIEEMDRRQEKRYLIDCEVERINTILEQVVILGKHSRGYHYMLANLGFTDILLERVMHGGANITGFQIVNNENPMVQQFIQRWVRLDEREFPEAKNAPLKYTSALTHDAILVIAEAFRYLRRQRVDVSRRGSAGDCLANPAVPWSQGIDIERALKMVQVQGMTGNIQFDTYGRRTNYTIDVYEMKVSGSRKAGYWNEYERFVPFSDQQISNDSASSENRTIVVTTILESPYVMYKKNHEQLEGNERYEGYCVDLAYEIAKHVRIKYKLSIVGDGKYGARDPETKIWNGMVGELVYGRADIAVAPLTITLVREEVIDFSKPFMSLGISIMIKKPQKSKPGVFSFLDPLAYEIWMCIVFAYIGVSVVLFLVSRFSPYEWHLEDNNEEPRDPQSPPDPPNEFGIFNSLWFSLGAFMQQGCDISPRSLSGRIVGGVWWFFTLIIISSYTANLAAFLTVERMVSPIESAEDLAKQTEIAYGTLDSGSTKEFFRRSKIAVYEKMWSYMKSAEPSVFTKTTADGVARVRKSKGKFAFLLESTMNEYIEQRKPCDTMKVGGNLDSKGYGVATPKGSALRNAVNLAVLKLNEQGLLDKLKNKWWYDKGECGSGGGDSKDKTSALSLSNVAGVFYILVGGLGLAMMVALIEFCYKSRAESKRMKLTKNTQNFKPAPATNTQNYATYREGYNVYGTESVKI
The target in test [3] is T1, Glutamate receptor 1. Briefly: Agonist activity at recombinant GluA1 receptor flip isoform expressed in Xenopus oocytes. In kind it is functional, cell-based, Oocyte.
Test [4] addresses T2, Glutamate receptor 3. Briefly: Agonist activity at recombinant GluA3 receptor flip isoform expressed in Xenopus oocytes. In kind it is functional, cell-based, Oocyte.
Test [5] is described as follows: Agonist activity at recombinant GluA4 receptor flip isoform expressed in Xenopus oocytes. The class given is functional, cell-based. The settings on record: Oocyte.
Test [6] has as its target T2, Glutamate receptor 3. Kind of test: Agonist activity at recombinant GluA3 receptor flop isoform expressed in Xenopus oocytes. In kind it is functional, cell-based, Oocyte.
The nature of test [7]: Agonist activity at recombinant GluA4 receptor flop isoform expressed in Xenopus oocytes. The class given is functional, cell-based. The settings on record: Oocyte.
The target in test [8] is T1, Glutamate receptor 1.
Test [9] is described as follows: Antagonist activity at recombinant GluA2A4 receptor flip isoform expressed in Xenopus oocytes. In kind it is functional. The note with it: Xenopus laevis, Oocyte.
Test [10] concerns Oocyte. Kind of test: Activity at recombinant GluA2A4 receptor flop isoform expressed in Xenopus oocytes assessed as potentiation of glutamate-induced current at 5 mM relative to control. The class given is cell-based.
For test [11], the system named is Oocyte. Kind of test: Activity at recombinant GluA2A4 receptor flip isoform expressed in Xenopus oocytes assessed as potentiation of glutamate-induced current at 5 mM relative to control. The class given is cell-based.
Test [12] addresses T3, Glutamate receptor AMPA 1/2 (Rattus norvegicus) (UniProt P19491+P19490). Kind of test: Activity at rat recombinant GluA1A2 receptor flip isoform expressed in HEK293 cells assessed as potentiation of 3000 uM glutamate-induced current at 100 uM relative to control. The class given is cell-based.
The target of test [13] is Glutamate receptor 1 (Rattus norvegicus) (UniProt P19490). Briefly: Activity at rat recombinant GluA1 receptor flip isoform expressed in HEK293 cells assessed as potentiation of 3000 uM glutamate-induced current at 100 uM relative to control. In kind it is cell-based.
Glutamate receptor 1 (Rattus norvegicus), sequence (P19490 whole entry, canonical isoform): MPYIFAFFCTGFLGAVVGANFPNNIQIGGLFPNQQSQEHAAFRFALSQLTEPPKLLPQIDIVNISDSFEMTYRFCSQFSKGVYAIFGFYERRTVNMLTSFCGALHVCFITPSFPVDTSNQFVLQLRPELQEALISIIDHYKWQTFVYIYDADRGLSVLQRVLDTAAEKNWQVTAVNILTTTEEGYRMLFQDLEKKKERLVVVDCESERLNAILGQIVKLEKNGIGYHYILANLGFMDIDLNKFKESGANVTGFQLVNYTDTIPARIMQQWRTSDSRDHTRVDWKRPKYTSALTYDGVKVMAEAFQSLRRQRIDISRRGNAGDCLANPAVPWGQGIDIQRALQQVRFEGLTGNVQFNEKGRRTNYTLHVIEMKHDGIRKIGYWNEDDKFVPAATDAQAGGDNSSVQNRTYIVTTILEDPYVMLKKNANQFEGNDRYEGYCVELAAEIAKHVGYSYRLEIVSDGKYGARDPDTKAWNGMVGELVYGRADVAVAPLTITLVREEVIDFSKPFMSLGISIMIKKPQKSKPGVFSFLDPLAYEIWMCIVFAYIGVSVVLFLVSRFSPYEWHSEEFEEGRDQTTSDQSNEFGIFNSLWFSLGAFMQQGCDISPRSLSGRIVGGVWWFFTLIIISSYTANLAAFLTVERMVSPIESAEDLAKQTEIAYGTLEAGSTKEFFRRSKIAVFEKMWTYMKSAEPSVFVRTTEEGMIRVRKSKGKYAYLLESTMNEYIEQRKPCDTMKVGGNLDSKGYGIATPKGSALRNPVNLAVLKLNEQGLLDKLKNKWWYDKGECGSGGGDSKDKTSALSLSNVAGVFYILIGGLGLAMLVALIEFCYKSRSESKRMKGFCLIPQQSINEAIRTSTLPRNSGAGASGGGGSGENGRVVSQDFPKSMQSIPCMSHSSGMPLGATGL
For test [14] the target is unchanged. Briefly: Activity at rat recombinant GluA1 receptor flop isoform expressed in HEK293 cells assessed as potentiation of 3000 uM glutamate-induced current at 100 uM relative to control. In kind it is cell-based.
Test [15] deals with Glutamate receptor 3 (Rattus norvegicus) (UniProt P19492). Kind of test: Activity at rat recombinant GluA3 receptor flip isoform expressed in HEK293 cells assessed as potentiation of 3000 uM glutamate-induced current at 100 uM relative to control. The class given is cell-based.
Glutamate receptor 3 (Rattus norvegicus), sequence (P19492 whole entry, canonical isoform): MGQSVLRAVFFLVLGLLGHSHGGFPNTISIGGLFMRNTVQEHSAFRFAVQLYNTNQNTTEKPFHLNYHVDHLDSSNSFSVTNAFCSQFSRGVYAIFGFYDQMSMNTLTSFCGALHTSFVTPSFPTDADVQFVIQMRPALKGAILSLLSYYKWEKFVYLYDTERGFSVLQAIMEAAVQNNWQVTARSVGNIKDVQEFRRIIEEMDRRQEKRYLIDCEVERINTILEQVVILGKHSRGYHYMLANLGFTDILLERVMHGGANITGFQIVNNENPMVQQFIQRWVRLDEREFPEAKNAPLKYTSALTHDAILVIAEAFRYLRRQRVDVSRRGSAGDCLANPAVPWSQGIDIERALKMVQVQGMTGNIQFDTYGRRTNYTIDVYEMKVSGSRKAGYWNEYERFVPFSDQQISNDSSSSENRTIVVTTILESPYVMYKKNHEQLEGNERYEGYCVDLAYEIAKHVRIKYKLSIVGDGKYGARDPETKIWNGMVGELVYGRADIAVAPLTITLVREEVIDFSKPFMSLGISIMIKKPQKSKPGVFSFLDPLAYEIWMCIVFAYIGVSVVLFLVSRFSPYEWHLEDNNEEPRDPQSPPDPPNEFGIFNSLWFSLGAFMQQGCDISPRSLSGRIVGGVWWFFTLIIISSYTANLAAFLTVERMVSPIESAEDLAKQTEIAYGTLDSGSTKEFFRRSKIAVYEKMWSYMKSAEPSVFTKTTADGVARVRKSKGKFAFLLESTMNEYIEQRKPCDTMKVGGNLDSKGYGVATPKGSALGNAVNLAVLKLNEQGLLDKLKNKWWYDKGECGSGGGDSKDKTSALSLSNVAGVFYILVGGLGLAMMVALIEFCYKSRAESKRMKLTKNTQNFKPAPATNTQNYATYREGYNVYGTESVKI
For test [16] the target is unchanged. Kind of test: Activity at rat recombinant GluA3 receptor flop isoform expressed in HEK293 cells assessed as potentiation of 3000 uM glutamate-induced current at 100 uM relative to control. The class given is cell-based.
The target in test [17] is Glutamate receptor 4 (Rattus norvegicus) (UniProt P19493). Briefly: Activity at rat recombinant GluA4 receptor flip isoform expressed in HEK293 cells assessed as potentiation of 3000 uM glutamate-induced current at 100 uM relative to control. The class given is cell-based.
Glutamate receptor 4 (Rattus norvegicus), sequence (P19493 whole entry, canonical isoform): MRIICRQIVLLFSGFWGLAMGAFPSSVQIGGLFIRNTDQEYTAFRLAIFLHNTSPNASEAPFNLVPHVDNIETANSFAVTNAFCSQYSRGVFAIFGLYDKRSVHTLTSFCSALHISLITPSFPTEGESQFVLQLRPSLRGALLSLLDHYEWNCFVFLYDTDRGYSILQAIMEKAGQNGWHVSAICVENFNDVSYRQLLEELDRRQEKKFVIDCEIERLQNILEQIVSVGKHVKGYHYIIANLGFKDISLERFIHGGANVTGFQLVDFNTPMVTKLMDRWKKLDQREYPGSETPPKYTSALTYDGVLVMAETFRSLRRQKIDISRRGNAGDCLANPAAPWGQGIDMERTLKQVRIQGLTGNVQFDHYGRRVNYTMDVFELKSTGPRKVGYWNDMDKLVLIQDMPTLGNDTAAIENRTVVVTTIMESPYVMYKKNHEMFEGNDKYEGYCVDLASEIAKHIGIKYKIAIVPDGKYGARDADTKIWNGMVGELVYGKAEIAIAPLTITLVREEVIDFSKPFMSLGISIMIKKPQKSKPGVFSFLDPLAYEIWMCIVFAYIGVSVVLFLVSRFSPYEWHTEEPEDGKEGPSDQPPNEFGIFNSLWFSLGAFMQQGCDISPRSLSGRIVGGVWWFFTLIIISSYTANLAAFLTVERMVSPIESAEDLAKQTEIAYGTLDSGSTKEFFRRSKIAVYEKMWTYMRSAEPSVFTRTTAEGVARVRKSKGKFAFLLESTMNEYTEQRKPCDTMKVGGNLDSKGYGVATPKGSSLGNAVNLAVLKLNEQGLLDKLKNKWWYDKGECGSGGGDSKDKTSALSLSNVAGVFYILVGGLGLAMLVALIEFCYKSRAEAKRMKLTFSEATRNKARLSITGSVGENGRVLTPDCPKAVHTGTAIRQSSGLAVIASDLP
Test [18] shares this target. Kind of test: Activity at rat recombinant GluA4 receptor flop isoform expressed in HEK293 cells assessed as potentiation of 3000 uM glutamate-induced current at 100 uM relative to control. In kind it is cell-based.
The target in test [19] is T1, Glutamate receptor 1. Briefly: Activity at recombinant GluA1 receptor flip isoform expressed in Xenopus oocytes assessed as potentiation of 10 uM AMPA-induced current at 100 uM relative to control. The note with it: Oocyte. The class given is cell-based.
Test [20] addresses T1, Glutamate receptor 1. Kind of test: Activity at recombinant GluA1 receptor flop isoform expressed in Xenopus oocytes assessed as potentiation of 10 uM AMPA-induced current at 100 uM relative to control. The class given is cell-based. The note with it: Oocyte.
For test [21], the target named is T2, Glutamate receptor 3. Kind of test: Activity at recombinant GluA3 receptor flip isoform expressed in Xenopus oocytes assessed as potentiation of 10 uM AMPA-induced current at 100 uM relative to control. In kind it is cell-based. The settings on record: Oocyte.
For test [22], the target named is T2, Glutamate receptor 3. Briefly: Activity at recombinant GluA3 receptor flop isoform expressed in Xenopus oocytes assessed as potentiation of 10 uM AMPA-induced current at 100 uM relative to control. The settings on record: Oocyte. The class given is cell-based.
The target of test [23] is T4, Glutamate receptor AMPA 1/2 (Homo sapiens) (UniProt P42262+P42261). Kind of test: Activity at recombinant GluA1A2 receptor flop isoform expressed in Xenopus oocytes assessed as potentiation of 10 uM AMPA-induced current at 100 uM relative to control. The class given is cell-based. The note with it: Oocyte.
Test [24] deals with T5, Glutamate receptor AMPA 2/3 (Homo sapiens) (UniProt P42263+P42262). Briefly: Activity at recombinant GluA2A3 receptor flop isoform expressed in Xenopus oocytes assessed as potentiation of 10 uM AMPA-induced current at 100 uM relative to control. In kind it is cell-based. The note with it: Oocyte.
Test [25] deals with T4, Glutamate receptor AMPA 1/2 (Homo sapiens). Briefly: Activity at recombinant GluA1 receptor flip/GluA2 receptor flop isoform expressed in Xenopus oocytes assessed as potentiation of 10 uM AMPA-induced current at 100 uM relative to control. The class given is cell-based. The settings on record: Oocyte.
Test [26] shares this target. Briefly: Activity at recombinant GluA1 receptor flop/GluA2 receptor flip isoform expressed in Xenopus oocytes assessed as potentiation of 10 uM AMPA-induced current at 100 uM relative to control. In kind it is cell-based. The note with it: Oocyte.
The target of test [27] is T5, Glutamate receptor AMPA 2/3 (Homo sapiens). Briefly: Activity at recombinant GluA2 receptor flop/GluA3 receptor flip isoform expressed in Xenopus oocytes assessed as potentiation of 10 uM AMPA-induced current at 100 uM relative to control. The note with it: Oocyte. In kind it is cell-based.
For test [28] the target is unchanged. Briefly: Activity at recombinant GluA2 receptor flip/GluA3 receptor flop isoform expressed in Xenopus oocytes assessed as potentiation of 10 uM AMPA-induced current at 100 uM relative to control. The class given is cell-based. The settings on record: Oocyte.
Test [29] addresses T3, Glutamate receptor AMPA 1/2 (Rattus norvegicus). Briefly: Activity at rat recombinant GluA1A2 receptor flop isoform expressed in HEK293 cells assessed as potentiation of 3000 uM glutamate-induced current at 100 uM relative to control. In kind it is cell-based.
In test [30] the target is T6, Glutamate receptor ionotropic, AMPA 2/3 (Rattus norvegicus) (UniProt P19491+P19492). Kind of test: Activity at rat recombinant GluA2A3 receptor flip isoform expressed in HEK293 cells assessed as potentiation of 3000 uM glutamate-induced current at 100 uM relative to control. In kind it is cell-based.
For test [31], the target named is T6, Glutamate receptor ionotropic, AMPA 2/3 (Rattus norvegicus). Kind of test: Activity at rat recombinant GluA2A3 receptor flop isoform expressed in HEK293 cells assessed as potentiation of 3000 uM glutamate-induced current at 100 uM relative to control. The class given is cell-based.
In test [32] the target is T7, Glutamate receptor AMPA 2/4 (Rattus norvegicus) (UniProt P19491+P19493). Kind of test: Activity at rat recombinant GluA2A4 receptor flip isoform expressed in HEK293 cells assessed as potentiation of 3000 uM glutamate-induced current at 100 uM relative to control. The class given is cell-based.
Test [33] addresses T7, Glutamate receptor AMPA 2/4 (Rattus norvegicus). Kind of test: Activity at rat recombinant GluA2A4 receptor flop isoform expressed in HEK293 cells assessed as potentiation of 3000 uM glutamate-induced current at 100 uM relative to control. The class given is cell-based.
In test [34] the target is T8, Glutamate receptor 1 (Rattus norvegicus, UniProt P19490). Briefly: Agonist activity at rat recombinant GluA1 receptor expressed in Xenopus oocytes. The class given is functional, cell-based, Oocyte.
T8 sequence (P19490 whole entry): as the sequence (P19490 whole entry, canonical isoform) above
In test [35] the target is T9, Glutamate receptor 3 (Rattus norvegicus, UniProt P19492). Briefly: Agonist activity at rat recombinant GluA3 receptor expressed in Xenopus oocytes. The class given is functional, cell-based, Oocyte.
T9 sequence (P19492 whole entry, canonical isoform): as the sequence (P19492 whole entry, canonical isoform) above
Test [36] has as its target T8, Glutamate receptor 1. Kind of test: Agonist activity at rat recombinant GluA1 receptor flop isoform expressed in Xenopus oocytes. In kind it is functional, cell-based, Oocyte.
For test [37], the target named is T9, Glutamate receptor 3. Briefly: Agonist activity at rat recombinant GluA3 receptor flop isoform expressed in Xenopus oocytes. In kind it is functional, cell-based, Oocyte.

T1 sequence (P42261 whole entry): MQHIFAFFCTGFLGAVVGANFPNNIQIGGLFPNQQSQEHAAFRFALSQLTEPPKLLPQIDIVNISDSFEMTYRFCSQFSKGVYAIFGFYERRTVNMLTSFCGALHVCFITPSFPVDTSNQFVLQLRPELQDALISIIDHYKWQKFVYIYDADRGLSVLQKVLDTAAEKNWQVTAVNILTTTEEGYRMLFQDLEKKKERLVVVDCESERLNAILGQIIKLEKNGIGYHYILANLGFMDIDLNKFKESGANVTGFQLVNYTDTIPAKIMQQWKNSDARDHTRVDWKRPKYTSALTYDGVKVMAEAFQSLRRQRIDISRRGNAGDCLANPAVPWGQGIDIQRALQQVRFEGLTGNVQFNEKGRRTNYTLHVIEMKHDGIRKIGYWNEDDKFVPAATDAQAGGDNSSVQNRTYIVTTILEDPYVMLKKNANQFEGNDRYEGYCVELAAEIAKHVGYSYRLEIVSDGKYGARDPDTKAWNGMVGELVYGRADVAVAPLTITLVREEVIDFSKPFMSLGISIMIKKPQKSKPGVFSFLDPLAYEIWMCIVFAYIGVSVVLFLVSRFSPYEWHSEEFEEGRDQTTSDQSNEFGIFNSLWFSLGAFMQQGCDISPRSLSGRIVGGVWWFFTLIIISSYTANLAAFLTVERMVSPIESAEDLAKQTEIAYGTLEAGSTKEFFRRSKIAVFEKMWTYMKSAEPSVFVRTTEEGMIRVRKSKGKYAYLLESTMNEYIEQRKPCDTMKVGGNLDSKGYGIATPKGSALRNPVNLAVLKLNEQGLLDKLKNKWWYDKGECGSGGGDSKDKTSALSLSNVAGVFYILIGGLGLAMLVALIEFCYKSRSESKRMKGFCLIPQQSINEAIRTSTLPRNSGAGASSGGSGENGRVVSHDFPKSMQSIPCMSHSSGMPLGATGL

Consider `N[C@@H](Cn1cc(F)c(=O)[nH]c1=O)C(=O)O`, for which the EC50 on Glutamate receptor 1 [1] amounted to 380 nM; at Glutamate receptor 3 [2], 20900 nM; at Glutamate receptor 1 [3], 382 nM; at Glutamate receptor 3 [4], 20900 nM; in [5], 11900 nM.
Regarding `Cc1onc(C(=O)O)c1C[C@H](N)C(=O)O`, the EC50 at Glutamate receptor 3 [6] was 1600 nM; in test [7], 1700 nM; at Glutamate receptor 1 [8], 270 nM.
In the case of `N#Cc1cc2c(cc1[N+](=O)[O-])=NC(=O)C(=O)N=2`, in [9], the Kb was 501 nM.
`COc1ccc(C(=O)N2CCCC2=O)cc1`: the fold change (FC) in the test on Oocyte [10] amounted to 77; in the test with Oocyte [11], 7.5.
For the molecule `NC(=O)COc1c(F)cc(SCCNS(=O)(=O)c2ccccc2)cc1F`, the fold change (FC) is 20 in [12]; 1.9 in test [13]; 2.9 in test [14]; 2.51 in test [15]; 11.1 in [16]; 11 in [17]. Besides, the fold change (FC) in test [18] came to 75; at Glutamate receptor 1 [19], 1.9; on Glutamate receptor 1 [20] it was 2.9; on Glutamate receptor 3 [21], 2.51; on Glutamate receptor 3 [22], 11.1; in test [23], 7.44. Further, the fold change (FC) in test [24] stood at 21.1; in [25], 20.1; in test [26], 9.49; in test [27], 4.78; in [28], 8.85; in test [29], 124. For the same molecule, the fold change (FC) was 28 in [30], 138 in [31], 10 in [32] and 74 in test [33].
`NC(Cc1ccc(=O)[nH][n+]1[O-])C(=O)O` (racemic): the EC50 at Glutamate receptor 1 [1] is 260 nM; on Glutamate receptor 3 [2], 41600 nM; at Glutamate receptor 1 [3], 258 nM; at Glutamate receptor 3 [4], 41600 nM.
As for `Cc1onc(C(=O)O)c1CC(N)C(=O)O` (racemic), the EC50 on Glutamate receptor 1 [34] came out at 1100 nM; at Glutamate receptor 3 [35], 100 nM; on Glutamate receptor 1 [36], 1100 nM; on Glutamate receptor 3 [37], 100 nM.

(Values after ChEMBL document CHEMBL1157033, “Developing a complete pharmacology for AMPA receptors: a perspective on subtype-selective ligands” (Bioorg Med Chem, 2010).)
